The test system of this experiment is 885724-159-R-J1-PDC complex spheroid viability. The experiment in a line: Anticancer human tumor 885724-159-R-J1-PDC patient-derived pancreatic adenocarcinoma cell line growth inhibition [GQUAD]. Particulars: for viability, T/C: stronger effect = lower value. An excerpt:
DNA G-quadruplex Stabilizer Agents in Combinations in Complex Spheroids
A high-throughput screen of multi-cell type tumor spheroids was designed to identify active combinations of DNA G-quadruplex stabilizer agents and targeted small molecules. Complex spheroids include a stromal component modeled by human endothelial cells (HUVEC) and fibroblasts modeled by human mesenchymal stem cells (MSCs). The concentration ranges selected for each drug and investigational agent were based upon clinically achievable concentrations if the clinical Cmax of the agent was known.
Compounds. The drugs and investigational agents: pidnarulex (CX-5461; NSC782164), APTO-253 (NSC789042), BRACO-19 (NSC847499), peposertib (NSC802822), ceralasertib (NSC780249), elimusertib (NSC800525), camonsertib (NSC841442), AZD-1390 (NSC803789), olaparib (NSC753686), talazoparib (NSC767125), ART-558 (NSC835418), sotorasib (NSC818433), MRTX-1133 (NSC836407), SN-38 (NSC673596), topotecan (NSC609699), etoposide (NSC141540), doxorubicin (NSC123127), gemcitabine (NSC613327), 5-fluorouracil (NSC19893), paclitaxel (NSC125973), vemurafenib (NSC761431), panobinostat (NSC761190), R-306465 (JNJ-16241199; NSC773264), adavosertib (NSC754352), TP-3654 (NSC805149), carboplatin (NSC241240), KSQ-4279 (NSC840948), and staurosporine (NSC755774) were obtained from the National Cancer Institute (NCI) Developmental Therapeutics Program Chemical Repository (34). The FDA-approved anticancer drug set is available from the NCI Developmental Therapeutics Program. […] The stock solutions were prepared in dimethyl sulfoxide (DMSO, Sigma-Aldrich, St. Louis, MO, cat. D2650) at 800-fold the tested concentration and stored at -70 degrees C prior to their use. All drugs and investigational agents were tested over a range starting from a high concentration at or near the clinical Cmax and decreasing in half-log increments. If the clinical Cmax for an agent had not been determined, the highest concentration tested was 10 microM.
2.3 Cell Culture. All cells were maintained in an incubator at 37 degrees C and 5% CO2 with 95% humidity. The PDC lines were cultured according to standard operating procedures established by the NCI PDMR. All PDCs were thawed and cultured in Matrigel-coated flasks prepared with a working solution of 1X Ham's F-12 nutrient mix, without supplementation (Invitrogen, cat. 11765054), 100 U/mL penicillin-streptomycin (Invitrogen, cat. 15140122), and 2.5% Matrigel (Corning Inc., cat. 354248) for the first three passages. The 857933-349-R-J2-PDC line was cultured in 6C/Colon 1B media, which includes advanced DMEM/F-12 (Thermo Fisher Scientific, cat. 12634028), 10 mM HEPES (Thermo Fisher Scientific, cat. 15630080), 1X GlutaMAX supplement (Thermo Fisher Scientific, cat. 35050061), 0.1 mg/mL primocin (InvivoGen, cat. ant-pm-2), 10% defined fetal bovine serum, heat inactivated (HyClone Laboratories Inc., cat. SH30070.03HI), 50% L-WRN conditioned media (ATCC, cat. CRL-3276), 1.25 mM N-Acetyl-L-cysteine (Sigma-Aldrich, cat. A9165), 10 mM nicotinamide (Sigma-Aldrich, cat. N0636), 1X B-27 supplement (Thermo Fisher Scientific, cat. 17504044), 1X N-2 supplement (Thermo Fisher Scientific, cat. 17502048), 10 microM Y-27632 dihydrochloride (Tocris Bioscience, cat. 1254), and 50 ng/mL human EGF recombinant protein (Thermo Fisher Scientific, cat. PHG0311). The 485176-168-R4-J1-PDC line was cultured in Panc media, which includes all 6C/Colon 1B media components plus 100 ng/mL human FGF-10 (Thermo Fisher Scientific, cat. 100-26), 500 nM SB-431542 (Selleckchem, cat. S1067), and gastrin (Tocris, cat. 3006).
[…]

Values joined by “and” are separate entries in the source; they are usually repeats but may differ in a detail not shown here. Equal entries are not always repeated.
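Note: spheroids exposed to agents for seven days before readout.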
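Throughout, for viability, T/C: percent of vehicle control viability where 100% = DMSO wells.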

Take `Nc1ccn(C2OC(CO)C(O)C2(F)F)c(=O)n1` (stereo not drawn): the viability, T/C (commonly the ratio of treated to control) (compound 0.0316 µM) is 94.4% and 88% and 85.7%; the viability, T/C (compound 0.1 µM) is 93.7% and 90.3% and 81.5%; the viability, T/C (compound 0.316 µM) was 74.7% and 78.5% and 86.1%; the viability, T/C (compound 1 µM) is 73.9% and 75.2% and 79.9%; the viability, T/C (compound 3.16 µM) is 80.9% and 58.4% and 67%; the viability, T/C (compound 10 µM) was 69% and 61% and 68.9%. Besides, the IC50 (as a rule, the concentration that inhibits the measured activity by half) (curve of compound) is > 10 µM.

For the compound `CCCS(=O)(=O)Nc1ccc(F)c(C(=O)c2c[nH]c3ncc(-c4ccc(Cl)cc4)cc23)c1F`, the viability, T/C is 98.5% and 105% and 90.7% (compound 0.0316 µM); 90.2% and 105% and 92.3% (compound 0.1 µM); 111% and 124% and 116% (compound 0.316 µM); 136% and 138% and 124% (compound 1 µM); 148% and 137% and 134% (compound 3.16 µM); 82% and 77.5% and 78.7% (compound 10 µM). The half-inhibitory concentration (IC50) (curve of compound) was > 10 µM.

In the case of `C=CC(=O)N1CCN(c2nc(=O)n(-c3c(C)ccnc3C(C)C)c3nc(-c4c(O)cccc4F)c(F)cc23)C(C)C1` (stereo not drawn) + Cc1[nH]c2ccc(F)cc2c1-c1nc2c3cccnc3c3ncccc3c2[nH]1, the IC50 was > 10 µM (curve of first compound, second compound 0.0316 µM); > 10 µM (curve of first compound, second compound 0.1 µM); > 10 µM (curve of first compound, second compound 0.316 µM); > 10 µM (curve of first compound, second compound 1 µM); < 0.0316 µM (curve of first compound, second compound 3.16 µM); > 10 µM (curve of first compound, second compound 10 µM). Further, the viability, T/C is 97.3% (second compound 0.0316 µM, first compound 0.0316 µM); 106% (second compound 0.0316 µM, first compound 0.1 µM); 98.4% (second compound 0.0316 µM, first compound 0.316 µM); 104% (second compound 0.0316 µM, first compound 1 µM); 98% (second compound 0.0316 µM, first compound 3.16 µM); 97.2% (second compound 0.0316 µM, first compound 10 µM). The viability, T/C reads like this: (second compound 0.1 µM, first compound 0.0316 µM) 105%; (second compound 0.1 µM, first compound 0.1 µM) 97.6%; (second compound 0.1 µM, first compound 0.316 µM) 98.7%; (second compound 0.1 µM, first compound 1 µM) 106%; (second compound 0.1 µM, first compound 3.16 µM) 109%; (second compound 0.1 µM, first compound 10 µM) 99.2%. In addition, the viability, T/C was 95.5% (second compound 0.316 µM, first compound 0.0316 µM); 105% (second compound 0.316 µM, first compound 0.1 µM); 92.8% (second compound 0.316 µM, first compound 0.316 µM); 94.3% (second compound 0.316 µM, first compound 1 µM); 122% (second compound 0.316 µM, first compound 3.16 µM); 88.6% (second compound 0.316 µM, first compound 10 µM). In addition, the viability, T/C is 73.7% (second compound 1 µM, first compound 0.0316 µM); 71.9% (second compound 1 µM, first compound 0.1 µM); 69.7% (second compound 1 µM, first compound 0.316 µM); 73.6% (second compound 1 µM, first compound 1 µM); 78.7% (second compound 1 µM, first compound 3.16 µM); 73.7% (second compound 1 µM, first compound 10 µM). Moreover, the viability, T/C was 45.9% (second compound 3.16 µM, first compound 0.0316 µM); 29.1% (second compound 3.16 µM, first compound 0.1 µM); 33.4% (second compound 3.16 µM, first compound 0.316 µM); 38.5% (second compound 3.16 µM, first compound 1 µM); 33.4% (second compound 3.16 µM, first compound 3.16 µM); 27.8% (second compound 3.16 µM, first compound 10 µM). For the same compound, the viability, T/C is 64.3% (second compound 10 µM, first compound 0.0316 µM); 70.3% (second compound 10 µM, first compound 0.1 µM); 72.1% (second compound 10 µM, first compound 0.316 µM); 79.2% (second compound 10 µM, first compound 1 µM); 73% (second compound 10 µM, first compound 3.16 µM); 65.9% (second compound 10 µM, first compound 10 µM).

Turning to `CN(C)c1ccc(Nc2c3ccc(NC(=O)CCN4CCCC4)cc3nc3cc(NC(=O)CCN4CCCC4)ccc23)cc1`, the viability, T/C runs as follows: (compound 0.0316 µM) 96.8% [middle of 12 runs]; (compound 0.1 µM) 97.9% [middle of 12 runs]; (compound 0.316 µM) 92.3% [middle of 12 runs]; (compound 1 µM) 79.7% [middle of 12 runs]; (compound 3.16 µM) 78.5% [middle of 12 runs]; (compound 10 µM) 84.1% [middle of 12 runs]. Also, the IC50 (compound alone, run of 02/26/2024) was > 10 µM.

For the origin of these results see PubChem BioAssay AID2060502 (Molecular Pharmacology Branch, DTP, NCI, 2025).
